Results published in patent US20260138978A1, “POSITIVE ALLOSTERIC MODULATORS OF THE MUSCARINIC ACETYLCHOLINE RECEPTOR M1” (Vanderbilt University, priority 2022, published 2026).
pEC50: −log10 of the molar value.

Assays:
[1] = target: T1, human mAChRM1 (Homo sapiens, UniProt P11229); assay: mAChR M1 cell-based functional assay (calcium mobilization), agonist activity upon compound addition, Emax relative to acetylcholine maximum; conditions: for Agonist Activity Human M1 EC50 / pEC50: calcium mobilization upon compound addition; for Emax: relative to the maximum for acetylcholine
T1 construct: host or cells: CHO-K1
T1 sequence (P11229 1-460): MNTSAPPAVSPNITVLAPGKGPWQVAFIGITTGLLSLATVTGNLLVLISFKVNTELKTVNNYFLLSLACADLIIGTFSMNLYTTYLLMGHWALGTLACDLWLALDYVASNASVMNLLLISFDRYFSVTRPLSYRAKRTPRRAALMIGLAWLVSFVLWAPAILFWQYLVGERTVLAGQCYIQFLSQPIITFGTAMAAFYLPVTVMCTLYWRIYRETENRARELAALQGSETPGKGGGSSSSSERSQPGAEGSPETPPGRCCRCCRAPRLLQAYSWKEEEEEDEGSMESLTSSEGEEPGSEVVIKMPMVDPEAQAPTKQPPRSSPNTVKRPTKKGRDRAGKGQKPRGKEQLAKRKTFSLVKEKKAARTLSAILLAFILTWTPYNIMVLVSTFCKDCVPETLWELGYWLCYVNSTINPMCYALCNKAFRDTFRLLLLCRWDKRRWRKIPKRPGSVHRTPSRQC
From the text: Lack of agonist activity may be measured as weak or no increase in calcium fluorescence in mAChRM1-transfected CHO-K1 cells in the presence of the compound, compared to the response of equivalent CHO-K1 cells in the absence of the compound. Lack of mAChRM1 agonist activity may be determined as a percent response relative to acetylcholine. For example, a disclosed compound may have less than or equal to 30%, 25%, 20%, 15%, 10%, 5%, or 1% mAChRM1 agonist activity relative to acetylcholine. A disclosed compound may have substantially no mAChRM1 agonist activity. […] The absence of mAChRM1 agonist activity may contribute to the avoidance of cholinergic adverse effect liability.
(§1) Chinese hamster ovary (CHO-K1) cells stably expressing rat (r)M1 were purchased from the American Type Culture Collection and cultured according to their indicated protocol. CHO cells stably expressing human (h)M2, hM3, and hM5 were described previously (Levey, et al., 1991); hM1 and hM4 cDNAs were purchased from Missouri S&T cDNA Resource; rM4 cDNA was provided by T. I. Bonner (National Institutes of Health, Bethesda, MD). rM2 and rM3 were cloned from a rat brain cDNA library and sequence verified. hM1, rM2, rM3, hM4, and rM4 cDNAs were used to stably transfect CHO-K1 cells purchased from the American Type Culture Collection using Lipofectamine 2000. To make stable rM2, hM2, rM3, hM4. and rM4 cell lines for use in calcium mobilization assays, these cells also were stably transfected with a chimeric G-protein (Gqi5) (provided by B. R. Conklin, University of California, San Francisco) using Lipofectamine 2000. rM1, hM1, rM3, hM3, rM5, and hM5 cells were grown in Ham's F-12 medium containing 10% heat-inactivated fetal bovine serum (FBS), 20 mM HEPES, and 50 μg/mL G418 sulfate. rM2-Gqi5, hM2-Gqi5, and hM4-Gqi5 cells were grown in the same medium also containing 500 µg/mL Hygromycin B. Stable rM4-Gqi5 cells were grown in DMEM containing 10% heat-inactivated FBS, 20 mM HEPES, 400 μg/mL G418 sulfate, and 500 μg/mL Hygromycin B.
(§2) For high throughput measurement of agonist-evoked increases in intracellular calcium, CHO-K1 cells stably expressing muscarinic receptors were plated in growth medium lacking G418 and hygromycin at 15,000 cells/[…] in Greiner 384-well black-walled, tissue culture (TC)-treated, clear-bottom plates (VWR). Cells were incubated overnight at 37° C. and 5% CO2. The next day, cells were washed using an ELX 405 (BioTek) with four washes (80 μL) of assay buffer then aspirated to 20 μL. Next, 20 μL of 16 μM Fluo-4/acetoxymethyl ester (Invitrogen, Carlsbad, CA) prepared as a 2.3 mM stock in DMSO and mixed in a 1:1 ratio with 10% (w/v) Pluronic F-127 and diluted in assay buffer was added to the wells and the cell plates were incubated for 50 min at 37° C. and 5% CO2. Dye was removed by washing with the ELX 405 (four 80 μL washes of assay buffer) then aspirated to 20 μL. Compound master plates were formatted in an 11 point CR^c format (1:3 dilutions) in 100% DMSO with a starting concentration of 10 mM using the BRAVO liquid handler (Agilent). Test compound CRCs were then transferred to daughter plates (240 nL) using the Echo acoustic plate reformatter (Labcyte, Sunnyvale, CA) and then diluted into assay buffer ([…]) to a 2× stock using a Thermo Fisher Combi (Thermo Fisher Scientific, Waltham, MA).
Calcium flux was measured using the Functional Drug Screening System (FDSS) 6000 (Hamamatsu Corporation, Tokyo, Japan) as an increase in the fluorescent static ratio. Compounds were applied to cells (20 μL, 2×) using the automated system of the FDSS 6000 at 4 s into the 300 s protocol and the data were collected at 1 Hz. […] Agonist activity was analyzed as a concentration-dependent increase in calcium mobilization upon compound addition. Emax values for agonist activity are expressed relative to the maximum for acetylcholine. Positive allosteric modulator activity was analyzed as a concentration-dependent increase in the EC20 acetylcholine response. […]

[2] = target: T1, human mAChRM1; assay: mAChR M1 cell-based functional assay (calcium mobilization), positive allosteric modulator activity: increase in the EC20 acetylcholine response; conditions: for Emax: PAM mode; for pEC50: read-out: PAM Activity Human M1 EC50
From the text: as §1, §2
Calcium flux was measured using the Functional Drug Screening System (FDSS) 6000 (Hamamatsu Corporation, Tokyo, Japan) as an increase in the fluorescent static ratio. Compounds were applied to cells (20 μL, 2×) using the automated system of the FDSS 6000 at 4 s into the 300 s protocol and the data were collected at 1 Hz. […] Agonist activity was analyzed as a concentration-dependent increase in calcium mobilization upon compound addition. Emax values for agonist activity are expressed relative to the maximum for acetylcholine. Positive allosteric modulator activity was analyzed as a concentration-dependent increase in the EC20 acetylcholine response. Antagonist activity was analyzed as a concentration-dependent decrease in the EC80 acetylcholine response. Concentration-response curves were generated using a four-parameter logistical equation in XLfit curve fitting software (IDBS, Bridgewater, NJ) for Excel (Microsoft, Redmond, WA) or Prism (GraphPad Software, Inc., San Diego, CA).
Activity (EC50 and Emax) was determined in the mAChRM1 cell-based functional assay as described above and the data are shown in Table 16. The compound numbers correspond to the compound numbers used in Table 15.

[3] = increase in the EC20 acetylcholine response

| Structure (SMILES) | Agonist Activity Human M1 EC50 [1] | Emax [2] [%] | pEC50 [2, 3] | PAM Activity Human M1 EC50 [2, 3] | pEC50 [1] | Emax [1] [%] |
| --- | --- | --- | --- | --- | --- | --- |
| Cc1cc(-c2cc(C(C)(C)O)c3cn(C)nc3c2)cc(F)c1CN1Cc2ncccc2C1=O [Compound 20, 6-(2-fluoro-4-(4-(2-hydroxypropan-2-yl)-2-methyl-2H-indazol-6-yl)-6-methylbenzyl)-6,7-dihydro-5H-pyrrolo[3,4-b]pyridin-5-one] | inactive | 47 | ≤ 5.00 |  |  |  |
| Cn1cc2c(C(C)(C)O)cc(-c3ccc(CN4Cc5ncccc5C4=O)c(F)c3)cc2n1 [Compound 21, 6-(2-fluoro-4-(4-(2-hydroxypropan-2-yl)-2-methyl-2H-indazol-6-yl)benzyl)-6,7-dihydro-5H-pyrrolo[3,4-b]pyridin-5-one] | inactive | 50 | ≤ 5.00 |  |  |  |
| Cc1cc(-c2cc(C(C)(C)O)c3cn(C)nc3c2)ccc1CN1Cc2ncccc2C1=O [Compound 22, 6-(4-(4-(2-hydroxypropan-2-yl)-2-methyl-2H-indazol-6-yl)-2-methylbenzyl)-6,7-dihydro-5H-pyrrolo[3,4-b]pyridin-5-one] | inactive |  |  | inactive |  |  |
| Cn1cc2c(C(C)(C)O)cc(-c3ccc(CN4Cc5ncccc5C4=O)cc3)cc2n1 [Compound 23, 6-(4-(4-(2-hydroxypropan-2-yl)-2-methyl-2H-indazol-6-yl)benzyl)-6,7-dihydro-5H-pyrrolo[3,4-b]pyridin-5-one] | inactive | 48 | ≤ 5.00 |  |  |  |
| Cn1cc2c(-c3cc(F)c(CN4Cc5ncccc5C4=O)c(F)c3)cc(C(C)(C)O)cc2n1 [Compound 24, 6-(2,6-Difluoro-4-(6-(2-hydroxypropan-2-yl)-2-methyl-2H-indazol-4-yl)benzyl)-6,7-dihydro-5H-pyrrolo[3,4-b]pyridin-5-one] | inactive | 81 | 5.72 |  |  |  |
| Cc1cc(-c2cc(C(C)(C)O)cc3nn(C)cc23)cc(F)c1CN1Cc2ncccc2C1=O [Compound 25, 6-(2-fluoro-4-(6-(2-hydroxypropan-2-yl)-2-methyl-2H-indazol-4-yl)-6-methylbenzyl)-6,7-dihydro-5H-pyrrolo[3,4-b]pyridin-5-one] | inactive | 76 | 5.60 |  |  |  |
| Cn1cc2c(-c3ccc(CN4Cc5ncccc5C4=O)c(F)c3)cc(C(C)(C)O)cc2n1 [Compound 26, 6-(2-fluoro-4-(6-(2-hydroxypropan-2-yl)-2-methyl-2H-indazol-4-yl)benzyl)-6,7-dihydro-5H-pyrrolo[3,4-b]pyridin-5-one] | inactive | 83 | 5.89 |  |  |  |
| Cc1cc(-c2cc(C(C)(C)O)cc3nn(C)cc23)ccc1CN1Cc2ncccc2C1=O [Compound 27, 6-(4-(6-(2-hydroxypropan-2-yl)-2-methyl-2H-indazol-4-yl)-2-methylbenzyl)-6,7-dihydro-5H-pyrrolo[3,4-b]pyridin-5-one] | inactive | 83 | 5.48 |  |  |  |
| Cn1cc(-c2cc(F)c(CN3Cc4ncccc4C3=O)c(F)c2)c(C(C)(C)O)n1 [Compound 28, 6-(2,6-difluoro-4-(3-(2-hydroxypropan-2-yl)-1-methyl-1H-pyrazol-4-yl)benzyl)-6,7-dihydro-5H-pyrrolo[3,4-b]pyridin-5-one] | inactive | 55 | ≤ 5.00 |  |  |  |
| Cn1cc(-c2ccc(CN3Cc4ncccc4C3=O)c(F)c2)c(C(C)(C)O)n1 [Compound 29, 6-(2-fluoro-4-(3-(2-hydroxypropan-2-yl)-1-methyl-1H-pyrazol-4-yl)benzyl)-6,7-dihydro-5H-pyrrolo[3,4-b]pyridin-5-one] | inactive | 56 | ≤ 5.00 |  |  |  |
| Cc1cc(-c2cn(C)nc2C(C)(C)O)cc(F)c1CN1Cc2ncccc2C1=O [Compound 30, 6-(2-fluoro-4-(3-(2-hydroxypropan-2-yl)-1-methyl-1H-pyrazol-4-yl)-6-methylbenzyl)-6,7-dihydro-5H-pyrrolo[3,4-b]pyridin-5-one] | inactive | 51 | ≤ 5.00 |  |  |  |
| Cc1cc(-c2cn(C)nc2C(C)(C)O)ccc1CN1Cc2ncccc2C1=O [Compound 31, 6-(4-(3-(2-hydroxypropan-2-yl)-1-methyl-1H-pyrazol-4-yl)-2-methylbenzyl)-6,7-dihydro-5H-pyrrolo[3,4-b]pyridin-5-one] | inactive | 47 | ≤ 5.00 |  |  |  |
| Cn1cc(-c2ccc(CN3Cc4ncccc4C3=O)cc2)c(C(C)(C)O)n1 [Compound 32, 6-(4-(3-(2-hydroxypropan-2-yl)-1-methyl-1H-pyrazol-4-yl)benzyl)-6,7-dihydro-5H-pyrrolo[3,4-b]pyridin-5-one] | inactive | 48 | ≤ 5.00 |  |  |  |
| Cn1cc2cc(-c3cc(F)c(CN4Cc5ncccc5C4=O)c(F)c3)cc(C(C)(C)O)c2n1 [Compound 33, 6-(2,6-difluoro-4-(7-(2-hydroxypropan-2-yl)-2-methyl-2H-indazol-5-yl)benzyl)-6,7-dihydro-5H-pyrrolo[3,4-b]pyridin-5-one] |  | 66 | 6.53 |  | ≤ 5.00 | 21 |
| Cn1cc2cc(-c3ccc(CN4Cc5ncccc5C4=O)c(F)c3)cc(C(C)(C)O)c2n1 [Compound 34, 6-(2-fluoro-4-(7-(2-hydroxypropan-2-yl)-2-methyl-2H-indazol-5-yl)benzyl)-6,7-dihydro-5H-pyrrolo[3,4-b]pyridin-5-one] |  | 65 | 6.49 |  | ≤ 5.00 | 17 |
